Test results published in patent US20250339409A1, “USES OF PAN BET INHIBITORS” (VYNE THERAPEUTICS INC., priority 2021, published 2025).
Like-named read-outs stand apart in the source and are kept apart here.

Experiment: Toxicokinetics in dogs after intra-articular injection: synovial fluid concentrations
Type: in vivo, Beagle dogs
Set-up: Synovial concentration of BETi1: unit not given here
Conditions: for AUC(0-t) / Cmax / Tmax / concentration at 4 weeks: Beagle, dog, synovial fluid; for AUC(0-t): read-out: Synovia AUC0-672 h; for concentration at 4 weeks: other: intra-articular injection, read-out: synovial level at four weeks post-treatment
Method: 16 Beagle dogs (8 males, 8 females) were assigned to four treatment groups to determine toxicity of BETi1 formulations following intra-articular injection.
The experimental groups are presented below: • Group 1: Control; 0 mg of BETi1/animal dose • Group 2: Low Dose; 7.5 mg of BETi1/animal dose • Group 3: Mid Dose; 75 mg of BETi1/animal dose • Group 4: High Dose; 150 mg of BETi1/animal dose
The control and BETi1 dose formulations were comprised as follows: Control: Vehicle (0.5% sodium carboxymethylcellulose; 0.1% polysorbate 80 in saline) • Low Dose: 0.75% w/w BETi1 suspended in Vehicle • Mid Dose: 7.5% w/w BETi1 suspended in Vehicle • High Dose: 15% w/w BETi1 suspended in Vehicle
Study dogs were administered control treatment or treatment with a BETi1 formulation via intra-articular injection only to their right knee joints. Dosage volume was 1 mL/knee.
Approximately 80 μL of synovial fluid was collected from animals from the right knee joint and placed into appropriately labeled tubes onto wet ice. Synovia was then transferred into labeled clear polypropylene tubes and frozen in the upright position over dry ice and stored in a freezer set to maintain <−60° C. until shipped on dry ice for analysis.
Quantification of BETi1 concentrations in plasma and synovial fluid was performed using a qualified liquid chromatographic triple quadrupole mass spectrometric (LC-MS/MS) method. Synovial fluids were centrifuged before analysis.
Toxicokinetic (TK) analysis of BETi1 plasma concentration-time and synovial fluid concentration-time data was performed. TK parameter values including maximum plasma/synovial fluid concentrations (Cmax), time to reach maximum concentrations (Tmax), and area under the plasma/synovial fluid concentrations vs. time curve (AUC) from time zero to 672-hour (AUC0-672h) was determined. Values that were below the lower limit of quantification (BLQ) were set to zero in the calculation of mean concentrations. When more than half of individual values at a single time point were BLQ, mean values were reported as BLQ.

Structure (SMILES): Cn1cc(-c2cccc(O)c2Oc2ccccc2)c2cc[nH]c2c1=O [BETi1]
- Synovial concentration of BETi1 (7.5 mg intra-articular, 72 h (day 3)): 125.625
- Synovial concentration of BETi1 (7.5 mg intra-articular, 336 h (day 14)): 0
- Synovial concentration of BETi1 (7.5 mg intra-articular, 504 h (day 21)): 0
- Synovial concentration of BETi1 (7.5 mg intra-articular, 672 h (day 28), in ng/mL): 0.685
- Synovial concentration of BETi1 (7.5 mg intra-articular, […] (day 7)): 1.58
- Synovial concentration of BETi1 (75 mg intra-articular, 72 h (day 3)): 27050
- Synovial concentration of BETi1 (75 mg intra-articular, 336 h (day 14)): 6805
- Synovial concentration of BETi1 (75 mg intra-articular, 504 h (day 21)): 937
- Synovial concentration of BETi1 (75 mg intra-articular, 672 h (day 28)): 316
- Synovial concentration of BETi1 (75 mg intra-articular, […] (day 7)): 33700
- Synovial concentration of BETi1 (150 mg intra-articular, 72 h (day 3)): 47600
- Synovial concentration of BETi1 (150 mg intra-articular, 336 h (day 14)): 18070
- Synovial concentration of BETi1 (150 mg intra-articular, 504 h (day 21)): 7765
- Synovial concentration of BETi1 (150 mg intra-articular, 672 h (day 28)): 4375
- Synovial concentration of BETi1 (150 mg intra-articular, […] (day 7)): 36000
- AUC(0-t) (7.5 mg/animal, Male, Study Day 1): 25.4 µg·h/mL
- Cmax (7.5 mg/animal, Male, Study Day 1, read-out: Synovia Cmax): 244 ng/mL
- Tmax (7.5 mg/animal, Male, Study Day 1, read-out: Synovia Tmax): 120 h
- AUC(0-t) (75 mg/animal, Female, Study Day 1): 6090 µg·h/mL
- Cmax (75 mg/animal, Female, Study Day 1, read-out: Synovia Cmax): 43700 ng/mL
- Tmax (75 mg/animal, Female, Study Day 1, read-out: Synovia Tmax): 120 h
- AUC(0-t) (75 mg/animal, Male, Study Day 1): 7890 µg·h/mL
- Cmax (75 mg/animal, Male, Study Day 1, read-out: Synovia Cmax): 47600 ng/mL
- Tmax (75 mg/animal, Male, Study Day 1, read-out: Synovia Tmax): 120 h
- AUC(0-t) (150 mg/animal, Female, Study Day 1): 11300 µg·h/mL
- Cmax (150 mg/animal, Female, Study Day 1, read-out: Synovia Cmax): 46100 ng/mL
- Tmax (150 mg/animal, Female, Study Day 1, read-out: Synovia Tmax): 204 h
- AUC(0-t) (150 mg/animal, Male, Study Day 1): 12500 µg·h/mL
- Cmax (150 mg/animal, Male, Study Day 1, read-out: Synovia Cmax): 63200 ng/mL
- Tmax (150 mg/animal, Male, Study Day 1, read-out: Synovia Tmax): 120 h
- concentration at 4 weeks (both sexes, 75 mg/animal, intra-articular, 75 mg): 1 µM
- concentration at 4 weeks (both sexes, 150 mg/animal, intra-articular, 150 mg): 13 µM
- Tmax (both sexes, intra-articular, calculated, read-out: Tmax, synovial fluid (converted)): ~120 h
- Cmax (both sexes, intra-articular, highest dose (150 mg), read-out: Cmax, synovial fluid): 50000 ng/mL
